In patent US20120220462A1, “INDUCING AGENT FOR PLANT ROOT” (Shiseido Company, Ltd., priority 2004, published 2012):

Assays:
Type in all cases: in vivo
[1] = tested on: Hydrangea (variety name unknown) branches including dormant buds; test: Evaluation Test 2: root inducing performance on Hydrangea branch cuttings including dormant buds, in soil; settings: for Weight with soil attached / No. of roots grown/specimen: one month at 25° C.; for Weight with soil attached: water treatment 1.5; for No. of roots grown/specimen: water treatment 2.1
Procedure: Branches of Hydrangea (variety name unknown) including dormant buds were cut to 5 cm or so lengths in December and were transplanted into trays filled with soil composed of red gravel and vermiculite (7:3). Water or a specific ketol fatty acid (Ia) (10 μM, 100 μM) was sprayed, the specimens were then cultured in a 25° C. biochamber (12 hour bright/dark cycle) for one month. The weights in the state with the soil attached, when pulling the cuttings from the soil and the number of roots grown were measured. Note that an increase in the weight with the soil attached accompanies improvement of the soil holding rate accompanying development of fibrous roots and the proliferation of leaf buds.

[2] = tested on: Hydrangea (variety name unknown) second node parts; test: Evaluation Test 1: root inducing performance on cut second node parts of Hydrangea, sprayed, on laboratory dishes; settings: 25° C. continuous light, 20 days, five specimens, water group 1.1
Procedure: The second node parts of Hydrangea (variety name unknown) were cut out in August and placed on laboratory dishes, on which filter paper was laid.
Aqueous solutions of the specific ketol fatty acid (Ia) (concentrations 100 μM and 200 μM) were prepared and sprayed by sprayers on said cut Hydrangea, which were then allowed to stand covered for 2 hours. Note that the control group was sprayed with pure water and allowed to stand in the same way as the specific ketol fatty acid (Ia). Thereafter, water was added and the resultant product allowed to stand at 25° C. under continuous light for 20 days.
The average number of roots grown were counted for five specimens in each group, whereby the average for the water treatment group was 1.1, the specific ketol fatty acid (Ia) 100 μM group was 3.2, and the 200 μM group 3.1.

[3] = tested on: Paraserianthes falcataria Becker cuttings; test: Root inducing performance test for Paraserianthes falcataria Becker cuttings; settings: Oxiberon 0, after two months
Description: Paraserianthes falcataria Becker useful as a material for producing plywood is a tropical plant, but like other trees, cannot be transplanted by cutting as the trees age. The inventors tried transplanting Paraserianthes falcataria Becker, considered impossible to transplant by cuttings, using KODA and the existing root inducing agent Oxiberon (made by Bayer CropScience). For the cultivation soil, they used red gravel granules.

[4] = tested on: Hypericum chinense cuttings; test: Root inducing performance test for Hypericum chinense cuttings
Procedure: In this Example 3, in the same way as in Example 2, the specific ketol fatty acid (Ia) was used to test the root inducing performance for Hypericum chinense.
The compositions of the root inducing agents and the root inducing test procedure used in the test groups were the same as in Example 2. As a result of the tests, it was learned that there was 100% survival of the cuttings of Hypericum chinense in the case of use of the root inducing agent (10 μM) and IBL (50 ppm).
Note that the asterisks at the tops of the bar graphs of FIG. 1 indicate the rate of risk in measurement of the significant difference. One indicates a rate of risk of 5% or less, two a rate of risk of 1% or less, and three a rate of risk of 0.5% or less.

[5] = tested on: Prunus×yedoensis (cherry tree) cuttings; test: Root inducing performance test for Prunus×yedoensis cuttings (survival); settings: 10 branches, water 0%
Description: 15 test groups including the root inducing agent of the present invention alone and combinations of the agent with other existing root inducing agents were used for a test of the root inducing performance for Prunus×yedoensis.
The existing root inducing agents used for the test were the indole inducing agent shown by the following formula (V) (hereinafter abbreviated as the “IBL”. See Japanese Patent Publication No. 10-77268A) and the commercially available root inducing agent Oxiberon (hereinafter abbreviated as “Oxy”, Made by Bayer CropScience).
Test Group (1): water, Test Group (2): KODA 10 μM, Test Group (3): KODA 100 μM, Test Group (4): Oxy, Test Group (5): IBL 50 ppm, Test Group (6): IBL 100 ppm, Test Group (7): KODA 10 μM+Oxy, Test Group (8): KODA 100 μM+Oxy, Test Group (9): KODA 10 μM+IBL 50 ppm, Test Group (10): KODA 100 μM+IBL 50 ppm, Test Group (11): KODA 10 μM+IBL 100 ppm, Test Group (12): KODA 100 μM+IBL 100 ppm, Test Group (13): KODA 10 μM+IBL 50 ppm+Oxy, Test Group (14): KODA 100 μM+IBL 50 ppm+Oxy, Test Group (15): KODA 100 μM+IBL 100 ppm+Oxy.
Branches of Prunus×yedoensis used for the test were purchased from Sumitomo Forestry Landscaping Co., Ltd. These were cut to lengths of 5 to 8 cm or so from the tips and transplanted into mixed soil in trays composed of red gravel and vermiculite blended in a 7:3 ratio. At this time, 10 branches were used for each test group. […]

CC/C=C\C/C=C\CC(=O)C(O)CCCCCCCC(=O)O (centres unmarked) [specific ketol fatty acid (Ia), 9-hydroxy-10-oxo-12(Z),15(Z)-octadecadienoic acid]
Weight with soil attached ([1]; 10 μM sprayed): 6.8 g/specimen
No. of roots grown/specimen ([1]; 10 μM sprayed): 5.3
development of leaf buds ([1]; 10 μM, 100 μM sprayed, one month, read from Table II results): promotes development of leaf buds
Weight with soil attached ([1]; 100 μM sprayed): 4.4 g/specimen
No. of roots grown/specimen ([1]; 100 μM sprayed): 6.5
average number of roots grown ([2]; 100 μM aqueous solution sprayed): 3.2
average number of roots grown ([2]; 200 μM aqueous solution sprayed): 3.1
Maximum root length ([3]; KODA 10 (μm)): 27.3 mm
Root dried weight ([3]; KODA 10 (μm)): 1.8 mg
Root Inducing rate ([3]; KODA 10 (μm), sprayed): 44%
Maximum root length ([3]; KODA 100 (μm)): 5.3 mm
Root Inducing rate ([3]; KODA 100 (μm)): 11%
Root dried weight ([3]; KODA 100 (μm)): 2.9 mg
amount of root inducing compared with the water-treated group (FIG. 1) ([4]; Test Group (2): KODA 10 μM): clearly increased
amount of root inducing compared with the water-treated group (FIG. 1) ([4]; Test Group (3): KODA 100 μM): clearly increased
number of cuttings surviving seven weeks after the start of the test ([5]; Test Group (2): KODA 10 μM): 10%
number of cuttings surviving seven weeks after the start of the test ([5]; Test Group (3): KODA 100 μM): 10%
